The results in this text go back to patent publication US9340510B2, “Tetrahydroisoquinoline derivatives, pharmaceutical compositions and uses thereof” (Boehringer Ingelheim International GmbH, priority 2014, dated 2016).

In general, pIC50 refers to the negative decadic logarithm of the IC50, by convention in mol/L. Low values mean a high IC50, high ones a low IC50.

pIC50: −log10 of the molar value.

The target of this test is human ACC2 (Homo sapiens (Human), UniProt O00763). Description: ACC2 assay: spectrophotometric 384 well assay (coupled lactate dehydrogenase/pyruvate kinase). Particulars: hACC2 construct lacking the 128 N-terminal amino acids, 25° C., 340 nm. The class given is biochemical. As to the method: Spectrophotometric 384 Well Assay
Chain of human ACC2 (O00763 129-2458): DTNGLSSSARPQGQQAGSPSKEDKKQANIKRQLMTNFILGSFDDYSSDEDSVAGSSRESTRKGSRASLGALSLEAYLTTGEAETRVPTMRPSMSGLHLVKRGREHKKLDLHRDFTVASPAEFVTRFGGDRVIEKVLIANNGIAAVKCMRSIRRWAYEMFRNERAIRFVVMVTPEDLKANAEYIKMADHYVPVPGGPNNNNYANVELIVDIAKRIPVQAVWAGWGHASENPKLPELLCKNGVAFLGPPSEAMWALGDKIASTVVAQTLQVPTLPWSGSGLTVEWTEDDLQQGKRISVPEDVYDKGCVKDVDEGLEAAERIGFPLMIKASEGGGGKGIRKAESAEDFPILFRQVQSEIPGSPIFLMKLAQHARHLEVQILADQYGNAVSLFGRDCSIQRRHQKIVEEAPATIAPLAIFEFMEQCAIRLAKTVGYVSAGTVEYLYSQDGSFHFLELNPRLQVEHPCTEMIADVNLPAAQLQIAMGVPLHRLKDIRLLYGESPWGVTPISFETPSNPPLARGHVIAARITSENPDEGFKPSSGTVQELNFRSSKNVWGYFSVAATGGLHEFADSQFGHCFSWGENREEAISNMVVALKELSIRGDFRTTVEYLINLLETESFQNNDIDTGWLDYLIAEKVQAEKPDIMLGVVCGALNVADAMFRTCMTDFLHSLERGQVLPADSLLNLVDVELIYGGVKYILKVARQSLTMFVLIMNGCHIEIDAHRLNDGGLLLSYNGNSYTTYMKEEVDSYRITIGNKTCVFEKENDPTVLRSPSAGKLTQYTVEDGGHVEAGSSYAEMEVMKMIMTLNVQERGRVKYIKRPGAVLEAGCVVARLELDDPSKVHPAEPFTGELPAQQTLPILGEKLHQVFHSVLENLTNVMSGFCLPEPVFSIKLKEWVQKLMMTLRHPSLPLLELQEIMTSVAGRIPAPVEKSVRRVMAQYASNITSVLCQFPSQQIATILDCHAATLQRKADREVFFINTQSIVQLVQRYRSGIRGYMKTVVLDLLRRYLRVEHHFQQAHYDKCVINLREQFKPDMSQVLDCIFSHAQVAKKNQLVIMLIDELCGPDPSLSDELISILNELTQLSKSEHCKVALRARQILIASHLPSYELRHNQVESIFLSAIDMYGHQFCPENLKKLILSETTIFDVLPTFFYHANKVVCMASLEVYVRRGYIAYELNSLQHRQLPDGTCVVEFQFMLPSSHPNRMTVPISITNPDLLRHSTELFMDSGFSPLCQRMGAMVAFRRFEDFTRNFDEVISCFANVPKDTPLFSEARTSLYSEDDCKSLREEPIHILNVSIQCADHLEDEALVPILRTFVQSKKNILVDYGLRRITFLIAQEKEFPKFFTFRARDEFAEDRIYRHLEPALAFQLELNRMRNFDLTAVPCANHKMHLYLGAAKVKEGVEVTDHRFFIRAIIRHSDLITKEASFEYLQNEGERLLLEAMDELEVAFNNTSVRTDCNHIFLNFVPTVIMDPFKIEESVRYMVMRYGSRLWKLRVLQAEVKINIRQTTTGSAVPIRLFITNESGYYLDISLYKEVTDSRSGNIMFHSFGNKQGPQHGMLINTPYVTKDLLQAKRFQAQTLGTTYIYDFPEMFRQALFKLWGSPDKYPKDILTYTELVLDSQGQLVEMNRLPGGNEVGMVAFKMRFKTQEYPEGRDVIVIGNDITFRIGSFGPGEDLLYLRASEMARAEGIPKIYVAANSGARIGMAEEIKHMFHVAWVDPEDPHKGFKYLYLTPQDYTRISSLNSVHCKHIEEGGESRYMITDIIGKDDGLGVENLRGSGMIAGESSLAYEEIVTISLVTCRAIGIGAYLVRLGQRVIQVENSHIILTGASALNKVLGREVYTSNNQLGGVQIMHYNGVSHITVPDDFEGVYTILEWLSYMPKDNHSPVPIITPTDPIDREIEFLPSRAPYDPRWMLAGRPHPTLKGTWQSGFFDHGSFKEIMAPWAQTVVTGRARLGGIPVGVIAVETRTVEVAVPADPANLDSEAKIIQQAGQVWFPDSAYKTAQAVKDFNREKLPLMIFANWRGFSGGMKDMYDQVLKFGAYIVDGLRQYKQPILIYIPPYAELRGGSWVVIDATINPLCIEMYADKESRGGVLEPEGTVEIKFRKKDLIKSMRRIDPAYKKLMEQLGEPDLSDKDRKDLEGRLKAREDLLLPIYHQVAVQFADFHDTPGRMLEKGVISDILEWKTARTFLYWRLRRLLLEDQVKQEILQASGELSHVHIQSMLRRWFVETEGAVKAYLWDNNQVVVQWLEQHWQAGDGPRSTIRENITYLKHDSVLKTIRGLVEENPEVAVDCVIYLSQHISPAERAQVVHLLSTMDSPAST
Malonyl CoA formation by acetyl CoA carboxylases is stoichiometrically linked to the consumption of ATP. ACC2 activity is measured in a […] kinetic method measuring ADP generated during the ACC reaction using a coupled lactate dehydrogenase/pyruvate kinase reaction.
For biological testing, a human ACC2 construct which lacks the 128 amino acids at the N-terminus for increased solubility (nt 385-6966 in Genbank entry AJ575592) is cloned. The protein is then expressed in insect cells using a baculoviral expression system. Protein purification is performed by anion exchange.
All compounds are dissolved in dimethyl sulfoxide (DMSO) to a concentration of 10 mM.
Assay reactions are then carried out in 384-well plates, with hACC2 in an appropriate dilution and at final assay concentrations (f.c.) of 100 mM Tris (pH 7.5), 10 mM trisodium citrate, 25 mM KHCO3, 10 mM MgCl2, 0.5 mg/ml BSA, 3.75 mM reduced L-glutathione, 15 U/ml lactate dehydrogenase, 0.5 mM phosphoenolpyruvate, 15 U/ml pyruvate kinase, compounds at different concentrations at final DMSO concentrations of 1%.
The enzymatic reaction is then started by addition of a mixture of NADH, acetyl Coenzyme A (both […].) and ATP (500 uM f.c.). The decrease of the optical density (slope S) is then determined at 25° C. at a wavelength of 340 nm over 15 minutes in a spectrophotometric reader.
Each assay microtiter plate contains wells with vehicle instead of compound as controls for the non-inhibited enzyme (100% CTL; ‘HIGH’) and wells without acetyl-CoA as controls for non-specific NADH degradation (0% CTL; ‘LOW’).
The slope S is used for calculation of % CTL=(S(compound)−S(‘LOW’))/(S(‘HIGH’)−S(‘LOW’))*100. Compounds will give values between 100% CTL (no inhibition) and 0% CTL (complete inhibition).
For IC50 value determination, the sample slope in the presence of the test compound after subtraction of the low controls (S(compound)−S(‘LOW’)) are used.
An IC50 value is derived from the compound slopes at different dosages after subtraction of the low controls (S(compound)-S(‘LOW’)) by non-linear regression curve fitting (equation y=(A+((B−A)/(1+((C/x)^D))))).
For the compound `COc1c(OCC2CC2(F)F)ccc2c1CCN(Cc1ccc([C@H](C)NC(C)=O)cc1)C2` (some centres unmarked) [Example 1.064], the pIC50 is 6.98.
The same measure for `COc1c(OCCCF)ccc2c1CCN(Cc1ccc([C@H](C)NC(C)=O)cc1)C2` [Example 1.065]: 6.68.
The same measure for `COc1c(OCCC(F)(F)F)ccc2c1CCN(Cc1ccc([C@H](C)NC(C)=O)cc1)C2` [Example 1.066]: 6.95; for `CCOc1ccc2c(c1OC)CCN(Cc1ccc([C@H](C)NC(C)=O)cc1)C2` [Example 1.067]: 6.63.
The value for `COc1c(OCC(C)C)ccc2c1CCN(Cc1ccc([C@H](C)NC(C)=O)cc1)C2` [Example 1.068] was 7.15.
`COc1c(OC(C)C)ccc2c1CCN(Cc1ccc([C@H](C)NC(C)=O)cc1)C2` [Example 1.069] showed a pIC50 of 6.38.
`COc1c(OC2CCC2)ccc2c1CCN(Cc1ccc([C@H](C)NC(C)=O)cc1)C2` [Example 1.070] gave a pIC50 of 6.84. Against the preceding compound, the pIC50 is 0.46 log units higher.
The same measure for `COc1c(OCC(F)F)ccc2c1CCN(Cc1ccc([C@H](C)NC(C)=O)cc1)C2` [Example 1.071]: 6.47.
In the case of `COc1c(OCCC(F)F)ccc2c1CCN(Cc1ccc([C@H](C)NC(C)=O)cc1)C2` [Example 1.072], the negative logarithm of the IC50 (pIC50) was 6.85.
The same measure for `COc1c(OCC2CCC2)ccc2c1CCN(Cc1ccc([C@H](C)NC(C)=O)cc1)C2` [Example 1.073]: 7.40; for `CCCOc1ccc2c(c1OC)CCN(Cc1ccc([C@H](C)NC(C)=O)cc1)C2` [Example 1.074]: 7.10.
The same measure for `COc1c(OCC2CC(F)(F)C2)ccc2c1CCN(Cc1ccc([C@H](C)NC(C)=O)cc1)C2` [Example 1.075]: 7.26.
The value for `COc1c(OCC2CC2)ccc2c1CCN(Cc1ccc([C@H](C)NC(C)=O)cc1)C2` [Example 1.076] was 7.17; that for `COc1c(OCCC2CC2)ccc2c1CCN(Cc1ccc([C@H](C)NC(C)=O)cc1)C2` [Example 1.077] was 7.40; that for `CC(=O)N[C@@H](C)c1ccc(CN2CCc3c(ccc(Cl)c3Cl)C2)cc1` [Example 1.078] was 7.17.
`CC(=O)N[C@@H](C)c1ccc(CN2CCc3c(ccc(OC(C)C)c3Br)C2)cc1` [Example 1.079] had a pIC50 of 6.87.
The same measure for `COc1ccc2c(c1F)CCN(Cc1ccc([C@H](C)NC(C)=O)cc1)C2` [Example 1.080]: 6.40; for `CC(=O)N[C@@H](C)c1ccc(CN2CCc3cc(Cl)ccc3C2)cc1` [Example 1.081]: 6.63; for `CC(=O)N[C@@H](C)c1ccc(CN2CCc3cc(OCC4CC4(F)F)ccc3C2C)cc1` (some centres unmarked) [Example 1.082]: 7.41.
As for `CCOc1ccc2c(c1OC)CCN(Cc1ccc([C@H](C)NC(C)=O)cc1)C2C` (some centres unmarked) [Example 1.083], the negative-log IC50 (pIC50) was 6.35.
The value for `COc1c(OCC2CC2(F)F)ccc2c1CCN(Cc1ccc([C@H](C)NC(C)=O)cc1)C2C` (some centres unmarked) [Example 1.084] was 6.58.
The value for `COc1c(OC2CCC2)ccc2c1CCN(Cc1ccc([C@H](C)NC(C)=O)cc1)C2C` (some centres unmarked) [Example 1.085] was 6.55; that for `COc1c(OCC2CC2)ccc2c1CCN(Cc1ccc([C@H](C)NC(C)=O)cc1)C2C` (some centres unmarked) [Example 1.086] was 6.64; that for `COc1c(OCC2CC(F)(F)C2)ccc2c1CCN(Cc1ccc([C@H](C)NC(C)=O)cc1)C2C` (some centres unmarked) [Example 1.087] was 6.72.
The same measure for `CC(=O)N[C@@H](C)c1ccc(CN2CCc3cc(OCC4CC4)ccc3C2)cc1` [Example 1.088]: 7.92.
On to `CC(=O)N[C@@H](C)c1ccc(CN2CC(=O)c3cc(OCc4ccccc4)ccc3C2)cc1` [Example 1.089], for which the pIC50 is 7.05.
Compound `CC(=O)N[C@@H](C)c1ccc(CN2CC(=O)c3cc(OCC4CC4)ccc3C2)cc1` [Example 1.090] had a pIC50 of 7.19. This pIC50 and that of the compound before are within 0.2 log units of each other.
The same measure for `CC(=O)N[C@@H](C)c1ccc(CN2Cc3ccc(OCC4CC4(F)F)cc3C(O)C2)cc1` (some centres unmarked) [Example 1.091]: 6.89; for `CC(=O)N[C@@H](C)c1ccc(CN2Cc3ccc(OCC4CC4(F)F)cc3C(F)C2)cc1` (some centres unmarked) [Example 1.092]: 7.80; for `CC(=O)N[C@@H](C)c1ccc(CN2Cc3ccc(OCC4CC4)cc3C(F)C2)cc1` (some centres unmarked) [Example 1.093]: 7.70.
The value for `COC1CN(Cc2ccc([C@H](C)NC(C)=O)cc2)Cc2ccc(OCC3CC3)cc21` (some centres unmarked) [Example 1.094] was 6.53; that for `COc1ccc2c(c1F)CCN(Cc1ccc([C@H](C)NC(C)=O)cc1)C2C` (some centres unmarked) [Example 1.095] was 6.31; that for `CC(=O)N[C@@H](C)c1ccc(CN2Cc3ccc(OCC4CC4)cc3C(O)C2)cc1` (some centres unmarked) [Example 1.096] was 6.50.
`CC(=O)N[C@@H](C)c1ccc(CN2Cc3ccc(OCC4CC4)cc3C(F)(F)C2)cc1` [Example 1.097] had a negative-log IC50 (pIC50) of 7.42.
In the case of `CC(=O)N[C@@H](C)c1ccc(CN2Cc3ccc(OC(C)C)cc3C(O)C2)cc1` (some centres unmarked) [Example 1.098], the pIC50 is 6.41.
The value for `CC(=O)N[C@@H](C)c1ccc(CN2Cc3ccc(OC4CCC4)cc3C(O)C2)cc1` (some centres unmarked) [Example 1.099] was 6.38; that for `CC(=O)N[C@@H](C)c1ccc(CN2Cc3ccc(OC(C)C)cc3C(F)C2)cc1` (some centres unmarked) [Example 1.100] was 7.52; that for `CC(=O)N[C@@H](C)c1ccc(CN2Cc3ccc(OCC4CCC4)cc3C(O)C2)cc1` (some centres unmarked) [Example 1.101] was 7.26.
The value for `COc1cccc2c1CCN(Cc1ccc([C@H](C)NC(=O)c3cncs3)cc1)C2` [Example 2.001, Thiazole-5-carboxylic acid {(S)-1-[4-(5-methoxy-3,4-dihydro-1H-isoquinolin-2-ylmethyl)-phenyl]-ethyl}-amide] was 6.87.
Take `COc1cccc2c1CCN(Cc1ccc([C@H](C)NC(=O)C3CC3)cc1)C2` [Example 2.002]: the pIC50 was 6.63.
The same measure for `COc1cccc2c1CCN(Cc1ccc([C@H](C)NC(=O)c3sc(NC(C)=O)nc3C)cc1)C2` [Example 2.003]: 6.80; for `C[C@H](NC(=O)CC(=O)N(C)C)c1ccc(CN2CCc3cc(OCC4CC4)ccc3C2)cc1` [Example 2.03]: 6.34; for `COc1cccc2c1CCN(Cc1ccc([C@H](C)NC(=O)c3cn[nH]c3)cc1)C2` [Example 2.004]: 6.74.
`C[C@H](NC(=O)CC#N)c1ccc(CN2CC(=O)c3cc(OCC4CC4(F)F)ccc3C2)cc1` (some centres unmarked) [Example 2.04] gave a negative logarithm of the IC50 (pIC50) of 6.35. Against the preceding compound, the pIC50 is 0.39 log units lower.
The value for `CC(=O)Nc1nc(C)c(C(=O)N[C@@H](C)c2ccc(CN3CCc4c(cccc4C(F)(F)F)C3)cc2)s1` [Example 2.005] was 6.98; that for `C[C@H](NC(=O)c1cncs1)c1ccc(CN2CCc3c(cccc3C(F)(F)F)C2)cc1` [Example 2.006] was 7.07; that for `C[C@H](NC(=O)C1CC1)c1ccc(CN2CCc3c(cccc3C(F)(F)F)C2)cc1` [Example 2.007] was 6.98.
The value for `C[C@H](NC(=O)c1cn[nH]c1)c1ccc(CN2CCc3c(cccc3C(F)(F)F)C2)cc1` [Example 2.008] was 7.00; that for `C[C@H](NC(=O)C1CC1)c1ccc(CN2CCc3c(Br)cccc3C2)cc1` [Example 2.009] was 6.60.
The value for `C[C@H](NC(=O)c1cncs1)c1ccc(CN2CCc3c(Br)cccc3C2)cc1` [Example 2.010] was 6.75.
